US20150045610A1, “METHOD OF MODIFYING SPERMATOGENESIS, SPERMIOGENESIS AND/OR FERTILITY IN MAMMALS” (Monell Chemical Senses Center, priority 2012, published 2015)
pIC50: −log10 of the molar value. Converted amounts (≈) assume the structure as drawn.

Experiments:
PDE 8 = conditions: read-out: IC50, PDE 8; cited from earlier work
PDE 1 = conditions: cited from earlier work
solubility = assay type: physicochemical
humanized mhT1R3 = molecular target: T1, humanized mhT1R3 (Homo sapiens, UniProt Q7RTX0, A109T/A120V/A176D/A197V/A198V/A228S/A231N/A248T/A280V/A282S/A302S/A412V/A417V/A46T/A537T/C375D/D124S/D249S/D250G/D364H/D419E/D470T/D491G/D88A/DEL352-352/DEL488-489/E172D/E199T/E203N/E217D/E356N/E45S/E481Q/E505D/E525K/E545Q/F540P/F555L/G168S/G205S/G311T/G314N/G355L/G360D/G414H/G438R/G439D/G463S/G50T/G542N/H261R/H278R/H281Y/H332P/I485M/I536F/INS376MLQNLSSG/K32Q/K339E/K422L/K494V/K86G/L173R/L245Q/L272V/L29F/L354S/L385Q/L433M/L458M/L483S/L71F/L74M/M151L/M315I/M318V/M31A/N285S/N386L/N532H/N68L/P112S/P246H/P335S/P416H/P420H/P441T/P60I/Q221E/Q257L/Q317R/Q330L/Q336H/Q359L/Q372R/Q418S/Q504K/Q531K/R123Q/R247D/R252Q/R291G/R30K/R357A/R443Q/R467V/R473T/R479Q/R482Q/R486Y/R498Q/R52N/R550K/R553A/R556P/R560K/R56Q/S251Q/S267K/S289H/S290H/S392A/S446A/S447E/S464P/S477T/S490P/S53Q/S559P/S58N/S67P/T195Q/T346A/T377L/T390I/T434S/T480L/T63N/V152I/V277A/V366M/V36I/V381L/V393T/V437A/V465T/V61P/W72L); assay: T1R3 pharmacological block with clofibrate diet (male reproduction); assay type: in vivo, mouse; conditions: clofibrate diet 300 mg/kg body weight, line 7c and WT males
T1 construct: the extracellular domain is of mouse origin and the transmembrane and intracellular domains of human origin; mouse T1R3 extracellular domain (fusion partner replacing the human extracellular domain); expressed in transfected cells; host or cells: transgenic Line 7c mice (T1R3-/-, Gus-/-, mhT1R3+/-)
T1 sequence (Q7RTX0 with tags, fused parts or gaps L29F/R30K/M31A/K32Q/V36I/E45S/A46T/G50T/R52N/S53Q/R56Q/S58N/P60I/V61P/T63N/S67P/N68L/L71F/W72L/L74M/K86G/D88A/A109T/P112S/A120V/R123Q/D124S/M151L/V152I/G168S/E172D/L173R/A176D/T195Q/A197V/A198V/E199T/E203N/G205S/E217D/Q221E/A228S/A231N/L245Q/P246H/R247D/A248T/D249S/D250G/S251Q/R252Q/Q257L/H261R/S267K/L272V/V277A/H278R/A280V/H281Y/A282S/N285S/S289H/S290H/R291G/A302S/G311T/G314N/M315I/Q317R/M318V/Q330L/H332P/P335S/Q336H/K339E/T346A/DEL352-352/L354S/G355L/E356N/R357A/Q359L/G360D/D364H/V366M/Q372R/C375D/INS376MLQNLSSG/T377L/V381L/L385Q/N386L/T390I/S392A/V393T/A412V/G414H/P416H/A417V/Q418S/D419E/P420H/K422L/L433M/T434S/V437A/G438R/G439D/P441T/R443Q/S446A/S447E/L458M/G463S/S464P/V465T/R467V/D470T/R473T/S477T/R479Q/T480L/E481Q/R482Q/L483S/I485M/R486Y/DEL488-489/S490P/D491G/K494V/R498Q/Q504K/E505D/E525K/Q531K/N532H/I536F/A537T/F540P/G542N/E545Q/R550K/R553A/F555L/R556P/S559P/R560K limits assumed): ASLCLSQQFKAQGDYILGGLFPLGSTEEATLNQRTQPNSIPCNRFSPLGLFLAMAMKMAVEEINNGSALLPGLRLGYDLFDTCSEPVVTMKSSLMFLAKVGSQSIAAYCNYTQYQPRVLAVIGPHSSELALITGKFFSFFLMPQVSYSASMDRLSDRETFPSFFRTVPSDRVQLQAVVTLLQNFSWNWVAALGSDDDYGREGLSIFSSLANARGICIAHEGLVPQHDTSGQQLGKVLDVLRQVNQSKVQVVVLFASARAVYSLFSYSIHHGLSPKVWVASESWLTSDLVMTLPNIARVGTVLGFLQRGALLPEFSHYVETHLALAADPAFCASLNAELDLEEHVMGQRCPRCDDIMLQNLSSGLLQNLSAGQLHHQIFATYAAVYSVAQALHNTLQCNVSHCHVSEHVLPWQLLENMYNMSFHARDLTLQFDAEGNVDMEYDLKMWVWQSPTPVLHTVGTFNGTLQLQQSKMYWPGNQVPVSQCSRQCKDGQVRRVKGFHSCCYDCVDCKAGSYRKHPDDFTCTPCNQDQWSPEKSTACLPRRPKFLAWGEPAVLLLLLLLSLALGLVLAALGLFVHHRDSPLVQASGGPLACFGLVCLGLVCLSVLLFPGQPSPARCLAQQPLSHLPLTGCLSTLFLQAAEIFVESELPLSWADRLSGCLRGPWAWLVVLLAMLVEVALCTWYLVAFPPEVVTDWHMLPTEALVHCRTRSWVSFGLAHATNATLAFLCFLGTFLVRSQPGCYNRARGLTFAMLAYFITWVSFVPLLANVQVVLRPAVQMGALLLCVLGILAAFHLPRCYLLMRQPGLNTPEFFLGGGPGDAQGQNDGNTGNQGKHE
Experimental: Matched groups (six males each) of WT and line 7c mice (expressing the chimerical mhT1R3 transgene on a T1R3/α-gustducin double-null background), 3-6 months old, were fed the indicated diets for 4-6 weeks. Each genotype was tested in two groups, one on the regular diet and one on a test diet with clofibrate. An additional group of males stayed on the test diet for another 4-6 weeks, during which time they were mated with WT females to determine whether the pharmacological intervention was effective. Then the animals were allowed to recover on the regular diet for an additional 4 weeks after the end of the treatment (half-time for total sperm turnover in mice), and again were tested for their reproductive capacity, and then their tissues were analyzed. […]
We observed spermatozoa after clofibrate treatment represent cells that were able to escape the inhibition of clofibric acid, most likely due to very fast clearance and fluctuating levels in rodents. […] Therefore, we measured sperm concentration as an indicator of efficiency of the pharmacological block and to be able to determine the concentration that results in effective sterility. We analyzed testicular morphology, sperm production, sperm motility and sperm function in in vitro fertilization after feeding these animals with the lipid lowering drug clofibrate. […]

PDE 4 = conditions: quantity not given; read-out: inhibition of PDE 4; cited from earlier work

OCCN(CCO)c1nc(N2CCCCC2)c2nc(N(CCO)CCO)nc(N3CCCCC3)c2n1 [Dipyridamole]
pIC50 (PDE 8): 5.05 to 5.40

CCOC(=O)C1=C[C@]2(CC)CCCN3CCc4c(n1c1ccccc41)[C@@H]32 [Vinpocetine]
pIC50 (PDE 1): 5.00

CCOC(=O)C(C)(C)Oc1ccc(Cl)cc1 [clofibrate]
solubility (solubility): 5000 µg/mL (≈ 20.6 mM) | effect on the health of the animals (humanized mhT1R3): no apparent effect
